The assay is described as follows: Body temperature of mice after intravenous injection. It counts as in vivo. The following applies: for body temperature at 0 min: amount injected as listed per substance. Here is the method:
Type: Out-breed, white NMRI
Average body weight: 24-27 gm
Diet: Standard food pellet
Mice fasted 12-15 hrs. prior to testing (water given during this period)
Mice all separated from one another
Mice kept in quiet and dark environment
Testing time: 1 p.m.-3 p.m. each day
Test solution is prepared by:
(b) dissolving a known amount of the refined brain extract in 0.4 ml of trishydrochloric buffer and adjusting the pH of the solution to from about 7.0 to about 7.4 by titrating with microdrops of 1 M or 0.1 M sodium hydroxide solution.
Volume of solution injected into mice:
Solution is at room temperature when injected into mice.
Mouse is placed in restrainer
Injection is made in the tail vein
Injection time: 2 minutes
Body temperature is measured by inserting a thermistor into the anal cavity to a depth of 11/2 cm (thermistor is made by Thermovit, Fu. Armatherm, Lemgo, W. Germany)
Temperature measurements are begun immediately after injection, i.e., 2 minutes after injection started
The extract obtained from the brain of 40 lungfish is used. Five mice are used in obtaining the data on the aroused lungfish and nine mice are used for the data on the estivating lungfish.

Take `CC(=O)[O-].[Na+]` [1.0 M SODIUM ACETATE, SODIUM ACETATE]: the “body temperature at 5 min” value turned out to be 37.5, the “body temperature at 10 min” value is 38.0, the “body temperature at 20 min” value amounted to 38.3 and the “body temperature at 30 min” value is listed as 38.5. The “body temperature at 40 min” value is 38.0, the “body temperature at 50 min” value was found to be 38.1 and the “body temperature at 60 min” value was determined as 38.2. Also, under “pH 7.0-7.4”, the “body temperature at 0 min” value is 37.0. Further, the “body temperature at 0 min” value (pH 7.0-7.4, listed as 3.0 M SODIUM ACETATE) is recorded as 37.5. In addition, for the setting “listed as 3.0 M SODIUM ACETATE”, the “body temperature at 5 min” value is reported as 36.2, the “body temperature at 10 min” value is listed as 37.0, the “body temperature at 20 min” value is 38.0 and the “body temperature at 30 min” value is 37.7. For the same compound, for the setting “listed as 3.0 M SODIUM ACETATE”, the “body temperature at 40 min” value was 38.1, the “body temperature at 50 min” value is 38.6 and the “body temperature at 60 min” value was determined as 38.5.

In the case of `O=C([O-])O.[K+]` [3.0 M KHCO3, KHCO3], the “body temperature at 2 min” value came out at 34.7, the “body temperature at 5 min” value is given as 35.0, the “body temperature at 10 min” value was 36.5 and the “body temperature at 20 min” value is 37.8. For the same compound, the “body temperature at 30 min” value was 37.9, the “body temperature at 40 min” value was determined as 38.4, the “body temperature at 50 min” value was 38.4 and the “body temperature at 60 min” value turned out to be 38.0. Also, for the setting “pH 7.0-7.4”, the “body temperature at 0 min” value is listed as 37.1. Moreover, the “body temperature at 0 min” value (pH 7.0-7.4, listed as 0.3 M KHCO3) is reported as 37.6. In addition, the “body temperature at 0 min” value (pH 7.0-7.4, listed as 1.0 M KHCO3) turned out to be 38.0. Further, where the note is “listed as 0.3 M KHCO3”, the “body temperature at 2 min” value is listed as 36.3, the “body temperature at 5 min” value is 37.2, the “body temperature at 10 min” value was 38.0 and the “body temperature at 30 min” value is on record as 38.3. Moreover, the “body temperature at 50 min” value (listed as 0.3 M KHCO3) was 38.3. For the setting “listed as 1.0 M KHCO3”, the “body temperature at 2 min” value came out at 37.2, the “body temperature at 5 min” value was 37.3, the “body temperature at 10 min” value came to 38.5 and the “body temperature at 20 min” value is 39.5. In addition, under “listed as 1.0 M KHCO3”, the “body temperature at 30 min” value was 39.0 and the “body temperature at 40 min” value is 39.1.

In the case of `O=C(O)CCCC(=O)O` [GLUTARIC ACID], the “body temperature at 2 min” value is listed as 36.5, the “body temperature at 5 min” value came out at 37.0, the “body temperature at 10 min” value is 38.1 and the “body temperature at 20 min” value stood at 38.5. Besides, the “body temperature at 30 min” value worked out at 38.5, the “body temperature at 40 min” value was 38.4, the “body temperature at 50 min” value amounted to 38.6 and the “body temperature at 60 min” value is 39.0. In addition, the “body temperature at 0 min” value (pH 7.0-7.4) came to 36.6.

Consider `[Cl-].[Na+]` [3.0 M NaCl, NaCl], for which the “body temperature at 2 min” value is recorded as 34.9, the “body temperature at 5 min” value was found to be 36.5, the “body temperature at 10 min” value worked out at 38.1 and the “body temperature at 20 min” value was determined as 37.9. The “body temperature at 30 min” value is 37.4, the “body temperature at 40 min” value was 37.4, the “body temperature at 50 min” value was found to be 37.6 and the “body temperature at 60 min” value came out at 37.7. In addition, where the note is “pH 7.0-7.4”, the “body temperature at 0 min” value is 36.0.

As to `N[C@@H](Cc1c[nH]c2ccccc12)C(=O)O` [TRYPTOPHAN], the “body temperature at 2 min” value is given as 36.4, the “body temperature at 5 min” value came out at 36.8, the “body temperature at 10 min” value was determined as 37.1 and the “body temperature at 20 min” value came out at 37.4. The “body temperature at 30 min” value was 36.5, the “body temperature at 40 min” value turned out to be 36.8, the “body temperature at 50 min” value is listed as 37.0 and the “body temperature at 60 min” value came out at 36.9. Moreover, where the note is “pH 7.0-7.4”, the “body temperature at 0 min” value came out at 36.9.

As to `N[C@@H](CC(=O)O)C(=O)O` [ASPARTIC ACID], the “body temperature at 2 min” value is 35.5, the “body temperature at 5 min” value is 36.7, the “body temperature at 10 min” value came out at 38.0 and the “body temperature at 20 min” value was determined as 37.5. Moreover, the “body temperature at 30 min” value came to 37.6, the “body temperature at 40 min” value is listed as 37.8, the “body temperature at 50 min” value is recorded as 37.8 and the “body temperature at 60 min” value was 37.8. In addition, where the note is “pH 7.0-7.4”, the “body temperature at 0 min” value was found to be 36.7.

For the origin of these results see patent publication US4382920A, “Hormone-like peptides and use thereof” (Perignon Investments Ltd., priority 1980, dated 1983).
